pIC50: −log10 of the molar value.
Experiments:
[1] = target: T1, BCL-2/BAK (Homo sapiens, UniProt P10415); experiment: Screening on inhibitory activity for BCL-2/BAK binding (Cisbio HTRF kit)
T1 construct: purchased Cisbio
Outline: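 HTRF competition assay: Tag1-BCL-2 and Tag2-BAK working dilutions were 5 nM and 120 nM. Compound (200–0.0488 nM final, 4-fold, 7 points, duplicates) was incubated with the proteins for 15 min at 25 °C, then with Eu-cryptate/XL665 antibodies for ≥2 h at 25 °C. IC50 was derived from a four-parameter fit.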

[2] = system: human platelet Caspase-3 activity; experiment: Human platelet toxicity experiment (Caspase-3 activity assay); format: cell-based; settings: 90 min, data normalized, reference ABT-199
Procedure: Experimental Example 6: Human Platelet Toxicity Experiment (Caspase-3 Activity Assay)
10 mL of human whole blood was collected using a heparin sodium anticoagulation tube, mixed well by turning upside down, and centrifuged at 90 g for 10 min. The supernatant was collected and centrifuged at 1950 g for 10 min. The supernatant was discarded, and the residue was resuspended in 4 mL of PBS, and centrifuged at 1190 g for 5 min, and the procedure was repeated once. The supernatant was discarded, and the platelets were resuspended in PBS and adjusted to the density of 2-3×10^8 cells/mL. Cells were seeded into a 96-well plate at a density of 2-3×10^7 cells/mL and at 100 μL/well. 50 μL of control buffer was added to each negative control well, and 50 μL of compound at a corresponding concentration was added to each compound well, so that the final concentration of the compound was 2.5 μM, 2 μM, 1 μM or 0.5 μM, followed by incubation in an incubator at 37° C. for 90 min. The liquids in the 96-well plate were transferred to 1.5 mL centrifuge tubes, respectively. The tubes were centrifuged at 4° C. and 6000 g for 5 min, and placed on ice for later use after the supernatant was discarded. 5× lysis buffer was diluted into 1× lysis buffer with water in the kit, and protease inhibitor cocktail was added at a 1:200 ratio to prepare a lysis mixture for later use. 40 μL of lysis mixture was added to each centrifuge tube, and the platelets at the bottom were resuspended using a pipette. The suspension was lysed on ice for 15-20 min and centrifuged at 4° C. and 14,000 g for 10 min. The sample was sub-packaged for later use. 10× assay buffer was diluted into 1× assay buffer with water in the kit, and substrate Ac-DEVD-AMC was added at a 1:600 ratio to prepare a reaction mixture. 5 μL of assay buffer and 40 μL of reaction mixture were added to each blank control well. 5 μL of control platelet lysate and 40 μL of reaction mixture were added to each negative control well. 5 μL of platelet lysate and 40 μL of reaction mixture were added to each compound well. In this procedure, 40 μL of reaction mixture was added at last. The resulting mixture was mixed gently, and the plate was read by a PE Envision multi-functional microplate reader (excitation: 360 nm, emission: 460 nm) once every 10 min for 6 times. Caspase-3 activity was determined based on the intensity of the released AMC fluorescence, that is the slope of the fitted line to which each well corresponds represents Caspase activity (all data were normalized and the reference was ABT-199).

[3] = target: T2, BCL-XL/BAK (Homo sapiens, UniProt Q07817); experiment: Screening on inhibitory activity for BCL-XL/BAK binding (Cisbio HTRF kit)
T2 construct: purchased Cisbio
T2 sequence (Q07817 whole entry, species assumed): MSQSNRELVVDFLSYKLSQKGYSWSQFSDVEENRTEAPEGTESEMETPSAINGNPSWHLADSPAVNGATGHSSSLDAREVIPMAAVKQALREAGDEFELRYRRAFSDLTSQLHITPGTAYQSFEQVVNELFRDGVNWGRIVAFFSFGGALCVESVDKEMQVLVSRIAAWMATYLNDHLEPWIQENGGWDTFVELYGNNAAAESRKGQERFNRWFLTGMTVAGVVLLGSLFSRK
Outline: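 Tag1-BCL-XL and Tag2-BAK (2 nM and 80 nM before mixing) were combined with compounds at final 2000–0.488 nM (4-fold, 7 points, duplicates) for 15 min at 25° C. Eu3+ anti-Tag1 and XL665 anti-Tag2 were then added for ≥2 h at 25° C. HTRF (620/665 nm) gave IC50 by four-parameter fit.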

[4] = system: RS4;11 cells; experiment: Inhibitory effect on proliferation of RS4;11 cells (CCK-8); format: cell-based, human
Outline: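 RS4;11 cells were seeded at 1×10^5 cells/mL in RPMI with 5% FBS and incubated 24 h at 37° C, 5% CO2 before compound addition in duplicate. Inhibition was calculated against untreated and blank controls. IC50 came from a four-parameter fit of log concentration versus inhibition.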

[5] = In vitro stability in human liver microsomes; format: in vitro ADME; settings: 1 μM
Procedure: (§1) Experimental Example 3: In Vitro Stability in Liver Microsome
(§2) 300 μL of the final incubation system contains 30 μL of liver microsomes (protein concentration: 5 mg/mL), 30 μL of NADPH+MgCl2, 3 μL of the test compound (in acetonitrile), and 237 μL of PBS buffer (pH 7.4), wherein the proportion of the organic solvent (acetonitrile) is 1% (volume ratio). Two duplicate samples were prepared for each specie (mouse, rat and human), and each sample was 0.3 mL. Each tube which was added with 270 μL of a mixed solution of substrate and enzyme, and NADPH, after being pre-incubated at 37° C. for 5 min, was added with 30 μL of NADPH+MgCl2 and mixed. Then 50 μL of the mixture was taken at 0 min, 15 min, 30 min and 60 min, and added with 300 μL of glacial acetonitrile containing an internal standard to terminate the reaction.
(§3) 50 μL of the incubated sample was added with 300 μL of glacial acetonitrile containing an internal standard (20 ng/mL diazepam) for precipitation, vortexed for 5 min, and centrifuged (13,000 rpm, 20° C.) for 10 min. 70 μL of supernatant was taken and diluted with 70 μL of ultrapure water. After being mixed well, 1 μL of the resulting sample was injected for analysis.

[6] = In vitro stability in mouse liver microsomes; format: in vitro ADME; settings: 1 μM
Procedure: as §1, §2, §3

[7] = In vitro stability in rat liver microsomes; format: in vitro ADME; settings: 1 μM
Procedure: as §1, §2, §3

T1 sequence (P10415 whole entry, species assumed): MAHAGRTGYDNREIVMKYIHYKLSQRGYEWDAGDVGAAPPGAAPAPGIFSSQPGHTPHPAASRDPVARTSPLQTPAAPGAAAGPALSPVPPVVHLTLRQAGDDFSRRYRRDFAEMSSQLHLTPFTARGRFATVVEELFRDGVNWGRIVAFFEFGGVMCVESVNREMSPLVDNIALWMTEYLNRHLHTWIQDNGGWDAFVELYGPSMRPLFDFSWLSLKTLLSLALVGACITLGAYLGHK

| Structure (SMILES) | pIC50 [1] | human platelet Caspase-3 activity, Slope ([2]; compound concentration 1 μM) | pIC50 [3] | pIC50 ([4]; 72 h) | Human Residual content after 60 min (%) [5] [%] | Mouse Residual content after 60 min (%) [6] [%] | Rat Residual content after 60 min (%) [7] [%] | pIC50 ([4]; Homo sapiens, RS4-11, 72 h) | human platelet Caspase-3 activity, Slope ([2]; compound concentration 0.5 μM) | human platelet Caspase-3 activity, Slope ([2]; compound concentration 2 μM) |
| --- | --- | --- | --- | --- | --- | --- | --- | --- | --- | --- |
| CC1(C)CCC(CN2CCN(c3ccc(C(=O)NS(=O)(=O)c4ccc(NC[C@@H]5COCCO5)c([N+](=O)[O-])c4)c(Oc4cnc5[nH]ccc5c4)c3)CC2)=C(c2ccc(C(F)(F)F)cc2Cl)C1 [Compound 7-1] | 8.46 | 0.48 | 6.54 | 8.34 |  |  |  |  |  |  |
| CC(=O)N1CCOC(CNc2ccc(S(=O)(=O)NC(=O)c3ccc(N4CCN(CC5=C(c6ccc(C(F)(F)F)cc6Cl)CC(C)(C)CC5)CC4)cc3Oc3cnc4[nH]ccc4c3)cc2[N+](=O)[O-])C1 (stereo not drawn) [Compound 9-1, 4-(4-{[2-(2-chloro-4-trifluoromethylphenyl)-4,4-dimethylcyclohex-1-enyl]methyl}-piperazin-1-yl)-N-({3-nitro-4-[((4-acetylmorpholin-2-yl)methyl)amino]phenyl}sulfonyl)-2-(1H-pyrrolo[2,3-b]pyridin-5-yloxy)-benzamide] | 8.74 |  |  |  | 69.8 | 55.7 | 101.7 | 8.57 |  |  |
| CC(C)C(=O)N1CCOC(CNc2ccc(S(=O)(=O)NC(=O)c3ccc(N4CCN(CC5=C(c6ccc(C(F)(F)F)cc6Cl)CC(C)(C)CC5)CC4)cc3Oc3cnc4[nH]ccc4c3)cc2[N+](=O)[O-])C1 (stereo not drawn) [Compound 10-1, 4-(4-{[2-(2-chloro-4-trifluoromethylphenyl)-4,4-dimethylcyclohex-1-enyl]methyl}-piperazin-1-yl)-N-({3-nitro-4-[((4-isobutyrylmorpholin-2-yl)methyl)amino]phenyl}sulfonyl)-2-(1H-pyrrolo[2,3-b]pyridin-5-yloxy)-benzamide] | 8.55 |  | 6.71 |  | 78.0 | 30.1 | 69.9 | 8.25 |  |  |
| CN1CCC(CCCNc2ccc(S(=O)(=O)NC(=O)c3ccc(N4CCN(CC5=C(c6ccc(C(F)(F)F)cc6Cl)CC(C)(C)CC5)CC4)cc3Oc3cnc4[nH]ccc4c3)cc2[N+](=O)[O-])CC1 [Compound 17-1, 4-(4-{[2-(2-chloro-4-trifluoromethylphenyl)-4,4-dimethylcyclohex-1-enyl]methyl}-piperazin-1-yl)-N-({3-nitro-4-[(3-(1-methylpiperidin-4-yl)propyl)amino]phenyl}sulfonyl)-2-(1H-pyrrolo[2,3-b]pyridin-5-yloxy)-benzamide] | 8.70 | 0.48 |  |  |  |  |  | 8.54 |  |  |
| CN1CCC(CCNc2ccc(S(=O)(=O)NC(=O)c3ccc(N4CCN(CC5=C(c6ccc(C(F)(F)F)cc6Cl)CC(C)(C)CC5)CC4)cc3Oc3cnc4[nH]ccc4c3)cc2[N+](=O)[O-])CC1 [Compound 18-1, 4-(4-{[2-(2-chloro-4-trifluoromethylphenyl)-4,4-dimethylcyclohex-1-enyl]methyl}-piperazin-1-yl)-N-({3-nitro-4-[(2-(1-methylpiperidin-4-yl)ethyl)amino]phenyl}sulfonyl)-2-(1H-pyrrolo[2,3-b]pyridin-5-yloxy)-benzamide] | 8.57 | 0.31 |  |  |  |  |  | 8.37 |  |  |
| CCN1CCC(CCNc2ccc(S(=O)(=O)NC(=O)c3ccc(N4CCN(CC5=C(c6ccc(C(F)(F)F)cc6Cl)CC(C)(C)CC5)CC4)cc3Oc3cnc4[nH]ccc4c3)cc2[N+](=O)[O-])CC1 [Compound 19-1, 4-(4-{[2-(2-chloro-4-trifluoromethylphenyl)-4,4-dimethylcyclohex-1-enyl]methyl}-piperazin-1-yl)-N-({3-nitro-4-[(2-(1-ethylpiperidin-4-yl)ethyl)amino]phenyl}sulfonyl)-2-(1H-pyrrolo[2,3-b]pyridin-5-yloxy)-benzamide] | 8.60 | 0.12 |  |  |  |  |  | 8.46 |  |  |
| CC1(C)CCC(CN2CCN(c3ccc(C(=O)NS(=O)(=O)c4ccc(NCCC5CCN(CCF)CC5)c([N+](=O)[O-])c4)c(Oc4cnc5[nH]ccc5c4)c3)CC2)=C(c2ccc(C(F)(F)F)cc2Cl)C1 [Compound 20-1, 4-(4-{[2-(2-chloro-4-trifluoromethylphenyl)-4,4-dimethylcyclohex-1-enyl]methyl}-piperazin-1-yl)-N-({3-nitro-4-[(2-(1-(2-fluoroethyl)piperidin-4-yl)ethyl)amino]phenyl}sulfonyl)-2-(1H-pyrrolo[2,3-b]pyridin-5-yloxy)-benzamide] | 8.68 | 0.37 |  |  |  |  |  | 8.41 |  |  |
| CC1(C)CCC(CN2CCN(c3ccc(C(=O)NS(=O)(=O)c4ccc(NC[C@@H]5CCCOC5)c([N+](=O)[O-])c4)c(Oc4cnc5[nH]ccc5c4)c3)CC2)=C(c2ccc(C(F)(F)F)cc2Cl)C1 [Compound 43-1, (S)-4-(4-{[2-(2-chloro-4-trifluoromethylphenyl)-4,4-dimethylcyclohex-1-enyl]methyl}-piperazin-1-yl)-N-({3-nitro-4-[((tetrahydropyran-3-yl)methyl)amino]phenyl}sulfonyl)-2-(1H-pyrrolo[2,3-b]pyridin-5-yloxy)-benzamide] | 8.74 |  | 6.92 |  |  |  |  | 8.72 | 0.19 | 0.09 |
| CCS(=O)(=O)N1CCOC(CNc2ccc(S(=O)(=O)NC(=O)c3ccc(N4CCN(CC5=C(c6ccc(C(F)(F)F)cc6Cl)CC(C)(C)CC5)CC4)cc3Oc3cnc4[nH]ccc4c3)cc2[N+](=O)[O-])C1 (stereo not drawn) [Compound 57-1, 4-(4-{[2-(2-chloro-4-trifluoromethylphenyl)-4,4-dimethylcyclohex-1-enyl]methyl}-piperazin-1-yl)-N-({3-nitro-4-[((4-(ethylsulfonyl)morpholin-2-yl)methyl)amino]phenyl}sulfonyl)-2-(1H-pyrrolo[2,3-b]pyridin-5-yloxy)-benzamide] | 8.47 |  | 6.57 |  |  |  |  | 8.64 | 0.08 | 0.04 |
| CC(=O)N1CCO[C@H](CNc2ccc(S(=O)(=O)NC(=O)c3ccc(N4CCN(CC5=C(c6ccc(C(F)(F)F)cc6Cl)CC(C)(C)CC5)CC4)cc3Oc3cnc4[nH]ccc4c3)cc2[N+](=O)[O-])C1 [Compound 65-1, (R)-4-(4-{[2-(2-chloro-4-trifluoromethylphenyl)-4,4-dimethylcyclohex-1-enyl]methyl}-piperazin-1-yl)-N-({3-nitro-4-[((4-acetylmorpholin-2-yl)methyl)amino]phenyl}sulfonyl)-2-(1H-pyrrolo[2,3-b]pyridin-5-yloxy)-benzamide] | 8.82 |  | 6.87 |  |  |  |  | 8.74 | 0.44 | 0.43 |
